Results published in patent US10071974B2, “Morpholine and 1,4-oxazepane amides as somatostatin receptor subtype 4 (SSTR4) agonists” (Boehringer Ingelheim International GmbH, priority 2014, dated 2018).
Where two headings read alike, the source gives them in different places.

Columns and labels:
[1] = human, microsomes
[2] = Metabolic stability in pooled human liver microsomes; details: 1 μM test compound, 37° C.
[3] = target: human Somatostatin 4 Receptor (SSTR4) (Homo sapiens (Human), UniProt P31391); assay: cAMP assay with human somatostatin 4 receptor (hSSTR4 expressing H4 cells); format: cell-based; details: read-out: SSTR4 agonism EC50
Sequence of human Somatostatin 4 Receptor (SSTR4) (P31391 whole entry): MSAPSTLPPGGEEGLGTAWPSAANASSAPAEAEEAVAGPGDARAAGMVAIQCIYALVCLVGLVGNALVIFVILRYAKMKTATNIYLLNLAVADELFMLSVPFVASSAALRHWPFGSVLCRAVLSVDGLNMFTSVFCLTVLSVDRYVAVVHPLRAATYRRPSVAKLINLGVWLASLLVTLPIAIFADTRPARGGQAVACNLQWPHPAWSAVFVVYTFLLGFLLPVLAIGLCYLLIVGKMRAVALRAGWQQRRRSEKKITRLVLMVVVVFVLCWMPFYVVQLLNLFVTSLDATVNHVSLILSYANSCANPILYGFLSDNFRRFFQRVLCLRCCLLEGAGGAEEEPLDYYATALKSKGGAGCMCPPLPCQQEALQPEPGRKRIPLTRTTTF

SMILES	Half-life t1/2 [1] [h]	Half-life t1/2 [2] [h]	EC50 [3] [nM]
CC(C)(NC(=O)C1CNCCOC1)c1noc2c(Cl)cccc12 (single isomer, unassigned) [Example 73]	>2.17		
Cn1nc(C(C)(C)NC(=O)[C@@H]2CNCCO2)c2cccc(Cl)c21 [Example 79]		1.67	
Cc1cccc2c(C(C)(C)NC(=O)[C@@H]3CNCCO3)nn(C)c12 [Example 83]		>2.17	4.1
